Data on 37 compounds can be found in ChEMBL document CHEMBL5441142, “Probing the Merck KGaA Open Global health library for novel starting points for anti-schistosomal drug discovery” (2024).

Structures are written as SMILES. Active and inactive are the calls of the source.

The test system of one assay is Schistosoma mansoni. The assay can be described thus: In vitro activity screen on S. mansoni schistosomula at 10 uM. Compound-induced effects were assessed by quantifying larva motility and phenotype using Roboworm. Type of assay: functional, organism-based. The arrangement: test concentration 10 uM, temperature 37 degree C, time incubation 72 h. To be noted: Puerto Rican.
Turning to `COCc1cc(-c2nc(-c3ccc(CNCC(=O)O)c(F)c3)no2)ccc1-c1ccccc1F`, the In vitro activity result is “Active”.
The same measure, in the same setting: the same measure for `COc1cc(OC)c(CCNC(=O)c2cn3cc(-c4cc(OCCO)ccc4OC)nc3s2)c(OC)c1`: “Active”.
Still for that read-out and setting: the result for `COc1ccc(OCCCO)cc1-c1cn2cc(-c3nnc(NCCCCc4ccccc4)o3)ccc2n1` reads “Active”; that for `CN(C)C(=O)/C=C/C(=O)c1ccc(SCc2ccc(Cl)cc2Cl)cc1`, “Active”; that for `COc1ccc(OC)c(CCNC(=O)c2ccc3nc(-c4cc(OCCCO)ccc4OC)cn3c2)c1`, “Active”.
For the compound `O=C(C1CCCCC1)N1CC(=O)N2CCc3ccccc3[C@@H]2C1`, the In vitro activity result is “Active”.
The same measure, in the same setting: the same measure for `CNS(=O)(=O)c1ccccc1Nc1nc(Nc2ccc(N3CCOCC3)cc2OC)ncc1Br`: “Active”.
As to `COc1ccc(CNc2nc3c(ccc4[nH]c(=O)c(C#N)cc43)s2)cc1`, the EC50 (in general, the concentration needed to bring the measured effect to its halfway point) was 4.35 µM (active).
`COc1cc(OC)c(CCNC(=O)c2cn3cc(-c4cc(OCC#N)ccc4OC)nc3s2)c(OC)c1`: the In vitro activity entry was “Active”.
In the case of `Cc1cn(-c2ccc(Nc3ncn(Cc4ccc(Cl)cc4)n3)cc2C#N)cn1`, the In vitro activity entry was “Active”.
Same read-out and setting: the same measure for `COc1cc(OC)c(CCNC(=O)c2cn3cc(-c4cc(OC)ccc4OC)nc3s2)c(OC)c1`: “Active”; for `COCCCOc1ccc(OC)c(-c2cn3cc(C(=O)NCCc4c(OC)cc(OC)cc4OC)ccc3n2)c1`: “Active”; for `Clc1cccc(OCc2ncc3nccnc3n2)c1Cl`: “Active”.
Still for that read-out and setting: the same measure for `CCOc1cc(CCNC(=O)C[C@H]2S[C@@H](c3ccc(C#Cc4ccccc4)cc3)N(c3cccc(C(N)=O)c3)C2=O)ccc1OC`: “Active”.
On the same count and under the same terms, the same measure for `CNS(=O)(=O)c1ccccc1Nc1nc(Nc2cc(OC)c(OC)cc2C)ncc1Br`: “Active”.
Take `COCc1cc(-c2nc(-c3ccc(CN(C)CCC(=O)O)c(F)c3)no2)ccc1-c1ccccc1C`: the In vitro activity result is “inactive”.
In the case of `COc1ccc(OCC(=O)O)cc1-c1cn2cc(C(=O)NCCc3c(OC)cc(Cl)cc3OC)sc2n1`, the In vitro activity entry was “inactive”.
On to `O=C(O)Cc1ccc(-c2nc(NCc3ccc4c(c3)OCO4)c3c(n2)sc2ccccc23)cc1`, for which the In vitro activity entry is “inactive”.
As to `Cc1ccccc1-c1ccc(-c2nc(-c3ccc(CN(C)CCC(=O)O)c(F)c3)no2)cc1C(F)(F)F`, the In vitro activity result is “inactive”.
Still for that read-out and setting: the result for `Cc1cc2c(cc1C(=O)N=C(N)N)S(=O)(=O)C(C)(C)CO2` reads “inactive”; that for `COc1cc(S(C)(=O)=O)ccc1-c1nc2ccncc2[nH]1`, “inactive”; that for `CCCCc1nc2ccn(Cc3ccccc3)c(=O)c2n1Cc1ccc(-c2ccccc2-c2nn[nH]n2)cc1`, “inactive”.
The same measure, in the same setting: the result for `Cc1sc2nc(N3CCC(C(=O)O)CC3)nc(NCc3ccc4c(c3)OCO4)c2c1Cl` reads “inactive”; that for `Cc1ccccc1-c1ccc(-c2nc(-c3ccc(CN(C)CCC(=O)O)cc3)no2)cc1C(F)(F)F`, “inactive”.
Same read-out and setting: the result for `COc1ccccc1-n1c(=S)[nH]c2scc(C)c2c1=O` reads “inactive”.
On to `CCCc1nn(C)c2c(=O)[nH]c(-c3cc(S(=O)(=O)Oc4nc(C)ccc4C#N)ccc3OCC)nc12`, for which the In vitro activity result was “inactive”.
The same measure, in the same setting: the result for `O=C(O)c1ccc(-c2nc(NCc3ccc4c(c3)OCO4)c3c(n2)sc2ccccc23)cc1` reads “inactive”; that for `COc1ccc(OCCCO)cc1-c1cn2cc(C(=O)NCCc3c(OC)cccc3OC)sc2n1`, “Active”; that for `CC1(C)Oc2ccc(C#N)cc2[C@H](n2ccccc2=O)[C@H]1O`, “inactive”.
`COCc1cc(-c2nc(-c3cccc(CN(C)CC(=O)O)c3)no2)ccc1N1CCCC1C` (stereo not given): the In vitro activity entry was “inactive”.
As for `CCN(CCC(=O)O)Cc1cccc(-c2noc(-c3ccc(-c4ccccc4C)c(COC)c3)n2)c1`, the In vitro activity entry is “inactive”.
The same measure, in the same setting: the same measure for `COCc1cc(-c2nc(-c3cccc(CN(C)CC(=O)O)c3)no2)ccc1N1CCCCC1`: “inactive”; for `COc1ccc(OC)c(CCNC(=O)c2cn3cc(-c4cc(OC)ccc4OC)nc3s2)c1`: “inactive”.
In the case of `CCNC1=N[C@@H]2[C@@H](O)[C@H](O)[C@@H](Cn3cc(COc4ccc(C)cc4)nn3)O[C@@H]2S1`, the In vitro activity entry is “inactive”.
Same read-out and setting: the result for `CSc1cc(C)c(C(=O)N=C(N)N)cc1S(C)(=O)=O` reads “inactive”; that for `COc1cc(Nc2cn(Cc3ccc(Oc4ccccc4)cc3)nn2)ccc1-n1cnc(C)c1`, “Active”.
Still for that read-out and setting: the same measure for `COc1cccc(CNc2nnc(-c3c[nH]c4ncccc34)o2)c1`: “Active”.

A further assay concerns Schistosoma mansoni. The assay can be described thus: Ex vivo activity screen on S. mansoni adult worms at 20 uM. Parasite motility after compound treatment was assessed at 72 h using the WHO-TDR scoring metric. To be noted: Puerto Rican. Also on record: test concentration 20 uM, temperature 37 degree C. Type of assay: functional, organism-based.
With `COCc1cc(-c2nc(-c3ccc(CNCC(=O)O)c(F)c3)no2)ccc1-c1ccccc1F`, the Ex-vivo screening entry is “inactive”.
Take `COc1cc(OC)c(CCNC(=O)c2cn3cc(-c4cc(OCCO)ccc4OC)nc3s2)c(OC)c1`: the Ex-vivo screening result is “inactive”.
In the case of `COc1ccc(OCCCO)cc1-c1cn2cc(-c3nnc(NCCCCc4ccccc4)o3)ccc2n1`, the Ex-vivo screening entry is “inactive”.
Same read-out and setting: the same measure for `CN(C)C(=O)/C=C/C(=O)c1ccc(SCc2ccc(Cl)cc2Cl)cc1`: “inactive”.
Still for that read-out and setting: the same measure for `COc1ccc(OC)c(CCNC(=O)c2ccc3nc(-c4cc(OCCCO)ccc4OC)cn3c2)c1`: “inactive”; for `O=C(C1CCCCC1)N1CC(=O)N2CCc3ccccc3[C@@H]2C1`: “inactive”.
On to `CNS(=O)(=O)c1ccccc1Nc1nc(Nc2ccc(N3CCOCC3)cc2OC)ncc1Br`, for which the Ex-vivo screening entry is “inactive”.
On the same count and under the same terms, the same measure for `COc1ccc(CNc2nc3c(ccc4[nH]c(=O)c(C#N)cc43)s2)cc1`: “Active”; for `COc1cc(OC)c(CCNC(=O)c2cn3cc(-c4cc(OCC#N)ccc4OC)nc3s2)c(OC)c1`: “inactive”; for `Cc1cn(-c2ccc(Nc3ncn(Cc4ccc(Cl)cc4)n3)cc2C#N)cn1`: “inactive”.
Consider `COc1cc(OC)c(CCNC(=O)c2cn3cc(-c4cc(OC)ccc4OC)nc3s2)c(OC)c1`, for which the Ex-vivo screening result is “inactive”.
Still for that read-out and setting: the result for `COCCCOc1ccc(OC)c(-c2cn3cc(C(=O)NCCc4c(OC)cc(OC)cc4OC)ccc3n2)c1` reads “inactive”.
For `Clc1cccc(OCc2ncc3nccnc3n2)c1Cl`, the Ex-vivo screening result was “inactive”.
On to `CCOc1cc(CCNC(=O)C[C@H]2S[C@@H](c3ccc(C#Cc4ccccc4)cc3)N(c3cccc(C(N)=O)c3)C2=O)ccc1OC`, for which the Ex-vivo screening result is “inactive”.
Still for that read-out and setting: the same measure for `CNS(=O)(=O)c1ccccc1Nc1nc(Nc2cc(OC)c(OC)cc2C)ncc1Br`: “inactive”; for `COc1ccc(OCCCO)cc1-c1cn2cc(C(=O)NCCc3c(OC)cccc3OC)sc2n1`: “inactive”; for `COc1cc(Nc2cn(Cc3ccc(Oc4ccccc4)cc3)nn2)ccc1-n1cnc(C)c1`: “inactive”.
On the same count and under the same terms, the same measure for `COc1cccc(CNc2nnc(-c3c[nH]c4ncccc34)o2)c1`: “inactive”.
